Results taken from patent US20170311606A1, “SYNERGISTIC BACILLUS THURINGIENSIS SUBSP. KURSTAKI AND FLUBENDIAMIDE MIXTURES FOR BEET ARMYWORM, SOYBEAN LOOPER, CORN EARWORM, AND CABBAGE LOOPER CONTROL” (priority 2016, published 2017).
Where two headings read alike, the source gives them in different places.

How the values were obtained:
soybean looper larvae = test: Leaf dip bioassay, soybean looper larvae; type: in vivo, Chrysodeixis includens; conditions: foliar, Btk 0.54 ppm, flubendiamide 3.9 ppm, alone or mixed, read-out: % Efficacy
Experimental: (§1) The present invention is not limited to the products or formulation types used herein. In each example below, the studies were conducted as follows.
(§2) For these tests, standardized laboratory leaf dip methods were used to inoculate plant material with treatment(s). Dry, treated leaves were placed into Petri dishes (100×25 mm) containing filter paper wetted with 500 μl of distilled H2O (“dH2O”). Each dish was then infested with between 5 and 10 larvae, dependent on species. Efficacy ratings were taken at specified intervals. Synergy ratings were calculated for each test.
(§3) % Cexp=A+B−(AB/100), where % Cexp is the expected efficacy and “in which A and B are the control levels given by the single [insecticides]. […] Adopting a conservative approach, Applicant determined synergy to be present at ratios of >1.15.

corn earworm larvae = test: Leaf dip bioassay, corn earworm larvae; type: in vivo; conditions: Helicoverpa zea, foliar, Btk 0.54 ppm, flubendiamide 0.975 ppm, alone or mixed, read-out: % Efficacy
Experimental: as §1, §2, §3

[1] = tested on: southwestern corn borer larvae; test: Leaf dip bioassay, southwestern corn borer larvae; type: in vivo; conditions: foliar, Btk 0.54 ppm, flubendiamide 0.215 ppm, alone or mixed, read-out: % Efficacy
Experimental: as §1, §2, §3

beet armyworm larvae = test: Leaf dip bioassay, beet armyworm larvae; type: in vivo; conditions: Spodoptera exigua, foliar, alone or mixed, read-out: % Efficacy
Experimental: as §1, §2, §3

diamondback moth larvae = test: Leaf dip bioassay, diamondback moth larvae; type: in vivo; conditions: Plutella xylostella, foliar, Btk 0.54 ppm, flubendiamide 0.215 ppm, alone or mixed, read-out: % Efficacy
sugarcane borer larvae = test: Leaf dip bioassay, sugarcane borer larvae; type: in vivo; conditions: foliar, Btk 0.54 ppm, flubendiamide 2.15 ppm, alone or mixed, read-out: % Efficacy
Experimental: as §1, §2, §3

cabbage looper larvae = test: Leaf dip bioassay, cabbage looper larvae; type: in vivo; conditions: Trichoplusia ni, foliar, Btk 0.54 ppm, flubendiamide 0.49 ppm, alone or mixed, read-out: % Efficacy
Experimental: as §1, §2, §3

## Cc1cc(C(F)(C(F)(F)F)C(F)(F)F)ccc1NC(=O)c1cccc(I)c1C(=O)NC(C)(C)CS(C)(=O)=O [Flubendiamide, 3-iodo-N′-(2-mesyl-1,1-dimethylethyl)-N-{4-[1,2,2,2-tetrafluoro-1-(trifluoromethyl)ethyl]-o-tolyl}phthalamide]
Soybean looper larvae; 24 h after treatment
  Emax at 3.9 ppm: 4%
Soybean looper larvae; 48 h after treatment
  Emax at 3.9 ppm: 16%
Corn earworm larvae; 24 h after treatment
  Emax at 0.975 ppm: 14%
Corn earworm larvae; 48 h after treatment
  Emax at 0.975 ppm: 24%
[1]; 24 h after treatment
  Emax at 0.215 ppm: 40%
[1]; 48 h after treatment
  Emax at 0.215 ppm: 48%
Beet armyworm larvae; 24 h after treatment
  Emax at 0.49 ppm: 6%
Beet armyworm larvae; 48 h after treatment
  Emax at 0.49 ppm: 14%
Diamondback moth larvae; 24 h after treatment
  Emax at 0.215 ppm: 7%
Diamondback moth larvae; 48 h after treatment
  Emax at 0.215 ppm: 19%
Sugarcane borer larvae; 24 h after treatment
  Emax at 2.15 ppm: 28%
Sugarcane borer larvae; 48 h after treatment
  Emax at 2.15 ppm: 40%
Cabbage looper larvae; 24 h after treatment
  Emax at 0.49 ppm: 7%
Cabbage looper larvae; 48 h after treatment
  Emax at 0.49 ppm: 19%
